Experimental data taken from patent US5929110A, “Fatty acid analogs and prodrugs” (G. D. Searle & Co., priority 1998, dated 1999).

test system: HIV-1; assay: inhibition of HIV-1; reduction of cytopathogenic effect in virus-infected Leu-3a-positive CEM cells (MTT assay); assay type: cell-based, strain HTVL-IIIB; conditions: Human immunodeficiency virus 1, CCRF-CEM, multiplicity of infection 0.1, MTT read on 7th to 9th day post-infection
Method: Inhibitory activity against HIV-1 was shown by tests involving plating of susceptible human host cells which are syncytium-sensitive with and without virus in microculture plates, adding various concentrations of the test compound, incubating the plates for 7 to 9 days (during which time infected, non-drug treated control cells are largely or totally destroyed by the virus), and then determining the remaining number of viable cells with a colorometric endpoint.
Various illustrative compounds synthesized above were tested for inhibition of HIV-1 in a test which measured reduction of cytopathogenic effect in virus-infected syncytium-sensitive Leu-3a-positive CEM cells grown in tissue culture as follows:
Tissue culture plates were incubated at 37° C. in a humidified, 5% CO2 atmosphere and observed microscopically for toxicity and/or cytopathogenic effect (CPE). At 1 hour prior to infection each test article was prepared from the frozen stock, and a 20 μl volume of each dilution (prepared as a 10× concentration) was added to the appropriate wells of both infected and uninfected cells.
Assays were done in 96-well tissue culture plates. CEM cells were treated with polybrene at a concentration of 2 μg/ml, and an 80 μl volume of cells (1×10^4 cells) was dispensed into each well. A 100 μl volume of each test article dilution (prepared as a 2× concentration) was added to 5 wells of cells, and the cells were incubated at 37° C. for 1 hour. A frozen culture of HIV-1, strain HTVL-IIIB, was diluted in culture medium to a concentration of 5×10^4 TCID50 per ml, and a 20 μl volume (containing 10^3 TCID50 of virus) was added to 3 of the wells for each test article concentration. […] A 20 μl volume of normal culture medium was added to the remaining wells to allow evaluation of cytotoxicity. Each plate contained 6 wells of untreated, uninfected, cell control samples and 6 wells of untreated, infected, virus control samples.
On the 7th to 9th day post-infection, the cells in each well were resuspended and a 100 μl sample of each cell suspension was removed for use in an MTT assay. A 20 μl volume of a 5 mg/ml solution of 3-(4,5-dimethylthiazol-2-yl)-2,5-diphenyltetrazolium bromide (MTT) was added to each 100 μl cell suspension, and the cells were incubated at 37° C. in 5% CO2 for 4 hours. […] A 100 μl volume of a solution of 10% sodium dodecyl sulfate in 0.01N hydrochloric acid was added to each sample, and the samples were incubated overnight. The absorbance at 590 nm was determined for each sample using a Molecular Devices Vmax microplate reader. This assay detects drug-induced suppression of viral CPE, as well as drug cytotoxicity, by measuring the generation of MTT-formazan by surviving cells.

SMILES	EC50 [µM]
COCCCCCCCCCCCC(=O)O [Example 1, 12-Methoxydodecanoic Acid]	4.3
COCCCCCCCOCCCC(=O)O [Example 5, 4-[(7-Methoxyheptyl)oxy]butanoic Acid]	> 430
CCCCCCCCCCOCCC#N [Example 6, 3-(Decyloxy)propanenitrile]	> 470
CCCCCCCCCCOCCC(=O)O [Example 7, 3-(Decyloxy)propanoic Acid]	18.7
COCCCCCCCCCCCC(=O)OC [Example 8, Methyl 12-Methoxydodecanoate]	6.1
CCOC(=O)CCCCCCCCCCCOC [Example 9, Ethyl 12-Methoxydodecanoate]	16.6
COCCCCCCCCCCCC(N)=O [Example 12, 12-Methoxydodecanamide]	192
COCCCCCCCCCCCC(N)=S [Example 13, 12-Methoxydodecanethioamide]	> 400
CCN(CC)C(=O)CCCCCCCCCCCOC [Example 15, N,N-Diethyl-12-methoxydodecanamide]	> 350
COCCCCCCCCCCCC(=O)NCCc1ccccc1 [Example 16, 12-Methoxy-N-(2-phenylethyl) dodecanamide]	4.5
CCCCCCCCCCOCCC(=O)N(CC)CC [Example 19, 3-(Decyloxy)-N,N-diethylpropanamide]	> 350
CCCCCCCCCCOCCC(=O)NCc1ccccc1 [Example 20, 3-(Decyloxy)-N-(phenylmethyl)propanamide]	> 310
CCOC(=O)CNC(=O)CCCCCCCCCCCOC [Example 21, N-(12-Methoxy-1-oxododecyl)-glycine, Ethyl ester]	8.6
CCOC(=O)CN(Cc1ccccc1)C(=O)CCCCCCCCCCCOC [Example 22, N-(12-Methoxy-1-oxododecyl)-N-(phenylmethyl)-glycine, Ethyl ester]	> 245
COCCCCCCCCCCCC(=O)NCC(=O)OC(C)(C)C [Example 23]	9.3
CCOC(=O)CNC(=O)CNC(=O)CCCCCCCCCCCOC [Example 24, N-[N-(12-Methoxy-1-oxododecyl)glycyl]glycine, Ethyl ester]	> 260
CCOC(=O)CN(CC(=O)OCC)C(=O)CCCCCCCCCCCOC [Example 25, N-(2-Ethoxy-2-oxoethyl)-N-(12-methoxy-1-oxododecyl)glycine, Ethyl ester]	> 240
CCOC(=O)CN(C)C(=O)CCCCCCCCCCCOC [Example 26, N-(12-Methoxy-1-oxododecyl)-N-methylglycine, Ethyl ester]	> 300
CCOC(=O)CN(C(=O)CCCCCCCCCCCOC)c1ccccc1 [Example 28, N-(12-Methoxy-1-oxododecyl)-N-phenylglycine, Ethyl ester]	> 250
CCCCCCCCCCOCCC(=O)NCC(=O)OCC [Example 29, N-[3-(Decyloxy)-1-oxopropyl]glycine, Ethyl ester]	> 315
CCOC(=O)CCNC(=O)CCCCCCCCCCCOC [Example 30, N-(12-Methoxy-1-oxododecyl)-β-alanine, Ethyl ester]	6.1
CCOC(=O)[C@H](C)NC(=O)CCCCCCCCCCCOC [Example 31, N-(12-Methoxy-1-oxododecyl)-L-alanine, Ethyl ester]	24

SMILES	EC50 [µM]
CCOC(=O)[C@@H](C)NC(=O)CCCCCCCCCCCOC [Example 34, N-(12-Methoxy-1-oxododecyl)-D-alanine, Ethyl ester]	> 300
CCOC(=O)C(C)CNC(=O)CCCCCCCCCCCOC (stereo not shown) [Example 36, Ethyl 2-[[(12-methoxy-1-oxododecyl)amino]-2-methyl]propanoate]	5.8
CCOC(=O)[C@H](C)CNC(=O)CCCCCCCCCCCOC [Example 39, Ethyl 3-[[(12-methoxy-1-oxododecyl)amino]-2R-methyl]propanoate]	6.7
CCOC(=O)C(CNC(=O)CCCCCCCCCCCOC)Cc1ccccc1 (stereo not drawn) [Example 42, Ethyl α-[[(12-Methoxy-1-oxododecyl)amino]methyl]benzenepropanoate]	6.4
CCOC(=O)[C@@H](NC(=O)CCCCCCCCCCCOC)[C@@H](C)CC [Example 45, N-(12-Methoxy-1-oxododecyl)-L-isoleucine, Ethyl ester]	< 2.7
CCOC(=O)[C@H](NC(=O)CCCCCCCCCCCOC)[C@H](C)CC [Example 48, N-(12-Methoxy-1-oxododecyl)-D-isoleucine, Ethyl ester]	> 265
COCCCCCCCCCCCC(=O)N[C@@H](Cc1ccccc1)C(=O)OC(C)(C)C [Example 50, N-(12-Methoxy-1-oxododecyl)-L-phenylalanine, 1,1-Dimethylethyl ester]	11.1
CCOC(=O)[C@@H](Cc1ccccc1)NC(=O)CCCCCCCCCCCOC [Example 52, N-(12-Methoxy-1-oxododecyl)-D-phenylalanine, Ethyl ester]	> 245
COCCCCCCCCCCCC(=O)N[C@H](Cc1ccccc1)C(=O)OC(C)(C)C [Example 54, N-(12-Methoxy-1-oxododecyl)-D-phenylalanine, 1,1-Dimethylethyl ester]	> 230
CCCCCCCCCCOCCC(=O)N[C@@H](Cc1ccccc1)C(=O)OCC [Example 55, N-(3-(Decycloxy)-1-oxopropyl]-L-phenylalanine, Ethyl ester]	> 240
CCOC(=O)[C@H](CCC(=O)OCc1ccccc1)NC(=O)CCCCCCCCCCCOC [Example 59, N-(12-methoxy-1-oxododecyl)-L glutamic acid, 1-Ethyl 5-(Phenylmethyl) ester]	7.3
CCOC(=O)[C@@H](CCC(=O)OCc1ccccc1)NC(=O)CCCCCCCCCCCOC [Example 62, N-(12-methoxy-1-oxododecyl)-D-glutamic acid, 1-Ethyl 5-(Phenylmethyl) ester]	> 205
CCOC(=O)[C@H](CCCCNC(=O)OCc1ccccc1Cl)NC(=O)CCCCCCCCCCCOC [Example 65, N6-[[(2-Chlorophenyl)methoxy]carbonyl]-N2-(12-methoxy-1oxododecyl)-L-lysine, Ethyl ester]	7.4
CCOC(=O)[C@H](Cc1c[nH]c2ccccc12)NC(=O)CCCCCCCCCCCOC [Example 71, N-(12-Methoxy-1-oxododecyl)-L-tryptophan, Ethyl ester]	18
CCOC(=O)[C@@H](Cc1c[nH]c2ccccc12)NC(=O)CCCCCCCCCCCOC [Example 74, N-(12-Methoxy-1-oxododecyl)-D-tryptophan, Ethyl ester]	> 221
CCOC(=O)[C@@H](NC(=O)CCCCCCCCCCCOC)[C@@H](C)OCc1ccccc1 [Example 77, N-(12-methoxy-1-oxododecyl)-O-(phenylmethyl)-L-threonine, Ethyl ester]	11.8
CCOC(=O)[C@H](NC(=O)CCCCCCCCCCCOC)[C@H](C)OCc1ccccc1 [Example 80, N-(12-methoxy-1-oxododecyl)-O-(phenylmethyl)-D-threonine, Ethyl ester]	> 225
COCCCCCCCCCCCC(=O)NCC(=O)O [Example 81]	27.5
COCCCCCCCCCCCC(=O)N[C@@H](Cc1ccccc1)C(=O)O [Example 82, N-(12-Methoxy-1-oxododecyl)-L-phenylalanine]	13
COCCCCCCCCCCCC(=O)N[C@H](Cc1ccccc1)C(=O)O [Example 83, N-(12-Methoxy-1-oxododecyl)-D-phenylalanine]	> 265
COCCCCCCCCCCCC#N [Example 84, 12-Methoxydodecanenitrile]	> 470
